Data as given in patent publication US9221756B2, “Pyrrole derivatives” (priority 2011, dated 2015).

What was measured:
[1] = target: T1, pneumolysin (Streptococcus pneumoniae serotype 2, UniProt Q04IN8); assay: Inhibition of the haemolytic activity of pneumolysin (sheep erythrocytes); format: cell-based
[2] = Conversion of prodrug derivatives to active inhibitors in mouse plasma; format: in vitro ADME; settings: 37° C., 10 μM start, prodrug remaining; for [ ] (μM) t0 min. Prodrug: 0 min; for [ ] (μM) t15 min. Prodrug: 15 min; for [ ] (μM) t30 min. Prodrug: 30 min; for [ ] (μM) t60 min. Prodrug: 60 min; for [ ] (μM) t120 min. Prodrug: 120 min
Method: (§1) The samples were then analysed by LC-MS/MS to obtain the amount of active compound appearing and prodrug derivative remaining over time. The mouse plasma assay system is considered to be a good model for human behaviour. Nevertheless data obtained in a human plasma assay system was obtained in some cases.
(§2) Prodrug derivatives were assessed in the mouse and human plasma stability assay at a concentration of 10 μM. Test compounds were diluted in DMSO to a final stock concentration of 10 mM. For the purpose of the assay, the stocks prepared were further diluted in DMSO to a concentration of 400 μM and […] were added to 195 μl of mouse or human plasma (pH 7.4) and then incubated at 37° C. The final concentration of DMSO in the plate was 2.5% (v/v). Reactions were terminated at 0, 15, 30, 60 and 120 min after incubation by adding 400 μl of acetonitrile containing 0.55 μM metoprolol and 1% (v/v) formic acid. The plate was then centrifuged at 3000 rpm, for 45 min, at 4° C. 80 μl of supernatant were transferred into a conical bottom 96 well glass coated plate. 40 μl of water were added prior to analysis for prodrug derivative and active species by LC-MS/MS. This assay was performed by a contract research organisation, Cyprotex Discovery Limited, UK, at the request of the inventors at Leicester.
(§3) (1) The active compound was quantified using a 6 point calibration curve prepared in deactivated mouse and human plasma. (2) The percentage of parent compound remaining at each time point relative to 0 min sample was calculated from LC-MS/MS peak area ratios (compound peak area/internal standard peak area). This percentage was then used to determine the concentration of the parent compound at each time point in reference to the starting concentration (10 μM) at time 0 min.

[3] = format: in vitro ADME; settings: human plasma; for [ ] (μM) t0 min. Prodrug (Human) / [ ] (μM) t15 min. Prodrug (Human) / [ ] (μM) t30 min. Prodrug (Human) / [ ] (μM) t60 min. Prodrug (Human) / [ ] (μM) t120 min. Prodrug (Human): 37° C., 10 μM start, prodrug remaining; for [ ] (μM) t15 min. Prodrug (Human): 15 min; for [ ] (μM) t30 min. Prodrug (Human): 30 min; for [ ] (μM) t60 min. Prodrug (Human): 60 min; for [ ] (μM) t120 min. Prodrug (Human): 120 min
Method: as §1, §2, §3

[4] = target: T2, Streptolysin O (SLO) (Streptococcus pyogenes serotype M3, UniProt P0DF97); assay: Inhibition of the haemolytic activity of Streptolysin O; format: cell-based, Group A Streptococci; settings: toxin SLO; haemolysis assay protocol of Section A
T2 sequence (P0DF97 34-571): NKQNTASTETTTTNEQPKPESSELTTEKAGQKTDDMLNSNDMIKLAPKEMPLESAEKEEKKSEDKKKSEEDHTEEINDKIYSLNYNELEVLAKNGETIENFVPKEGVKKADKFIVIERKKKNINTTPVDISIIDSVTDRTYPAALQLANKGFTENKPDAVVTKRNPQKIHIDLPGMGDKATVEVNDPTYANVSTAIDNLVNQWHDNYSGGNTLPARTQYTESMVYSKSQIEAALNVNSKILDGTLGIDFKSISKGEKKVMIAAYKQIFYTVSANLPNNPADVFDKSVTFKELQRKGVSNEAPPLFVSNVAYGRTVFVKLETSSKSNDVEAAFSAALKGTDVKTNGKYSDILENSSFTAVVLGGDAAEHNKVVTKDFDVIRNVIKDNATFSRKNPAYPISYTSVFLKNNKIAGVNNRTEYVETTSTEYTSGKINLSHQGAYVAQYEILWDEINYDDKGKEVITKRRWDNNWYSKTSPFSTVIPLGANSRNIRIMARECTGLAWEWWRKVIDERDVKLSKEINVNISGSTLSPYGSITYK

[5] = target: Perfringolysin O (PFO) (Clostridium perfringens, UniProt P0C2E9); assay: cell-based
Sequence of Perfringolysin O (PFO) (P0C2E9 29-500 limits assumed): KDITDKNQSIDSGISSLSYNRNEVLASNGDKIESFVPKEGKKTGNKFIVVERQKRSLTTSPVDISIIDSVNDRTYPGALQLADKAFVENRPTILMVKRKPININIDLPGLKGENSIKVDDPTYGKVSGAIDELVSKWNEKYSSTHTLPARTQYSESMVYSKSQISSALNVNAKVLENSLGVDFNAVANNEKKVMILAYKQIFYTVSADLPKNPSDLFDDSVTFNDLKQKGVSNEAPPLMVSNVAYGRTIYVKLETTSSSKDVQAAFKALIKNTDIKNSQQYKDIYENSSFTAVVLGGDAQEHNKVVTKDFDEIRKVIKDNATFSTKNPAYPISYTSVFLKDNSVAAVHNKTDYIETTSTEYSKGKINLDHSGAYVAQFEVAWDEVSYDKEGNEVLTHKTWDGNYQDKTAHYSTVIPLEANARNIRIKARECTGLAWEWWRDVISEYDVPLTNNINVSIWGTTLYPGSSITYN

[6] = target: Listeriolysin O (LLO) (Listeria monocytogenes serovar 1/2a, UniProt P13128); assay: Inhibition of the haemolytic activity of Listeriolysin O; format: cell-based; settings: toxin LLO; haemolysis assay protocol of Section A
Sequence of Listeriolysin O (LLO) (P13128 25-529): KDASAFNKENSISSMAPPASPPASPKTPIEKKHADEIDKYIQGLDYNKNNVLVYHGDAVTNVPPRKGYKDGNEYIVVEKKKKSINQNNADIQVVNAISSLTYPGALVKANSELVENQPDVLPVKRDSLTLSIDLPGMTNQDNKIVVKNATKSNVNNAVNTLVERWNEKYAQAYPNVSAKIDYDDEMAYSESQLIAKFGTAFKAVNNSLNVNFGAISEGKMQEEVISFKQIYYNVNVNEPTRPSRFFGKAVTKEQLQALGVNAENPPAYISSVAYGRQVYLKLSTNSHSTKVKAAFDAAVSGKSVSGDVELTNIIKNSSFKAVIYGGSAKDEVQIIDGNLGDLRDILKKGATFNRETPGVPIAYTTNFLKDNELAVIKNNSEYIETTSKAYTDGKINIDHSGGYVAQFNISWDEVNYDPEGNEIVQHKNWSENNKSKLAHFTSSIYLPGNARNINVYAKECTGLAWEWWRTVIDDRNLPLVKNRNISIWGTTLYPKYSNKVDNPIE

[7] = target: Anthrolysin O (ALO) (Bacillus anthracis, UniProt A0A6L7HHW7); assay: cell-based
Sequence of Anthrolysin O (ALO) (A0A6L7HHW7 35-512 limits assumed): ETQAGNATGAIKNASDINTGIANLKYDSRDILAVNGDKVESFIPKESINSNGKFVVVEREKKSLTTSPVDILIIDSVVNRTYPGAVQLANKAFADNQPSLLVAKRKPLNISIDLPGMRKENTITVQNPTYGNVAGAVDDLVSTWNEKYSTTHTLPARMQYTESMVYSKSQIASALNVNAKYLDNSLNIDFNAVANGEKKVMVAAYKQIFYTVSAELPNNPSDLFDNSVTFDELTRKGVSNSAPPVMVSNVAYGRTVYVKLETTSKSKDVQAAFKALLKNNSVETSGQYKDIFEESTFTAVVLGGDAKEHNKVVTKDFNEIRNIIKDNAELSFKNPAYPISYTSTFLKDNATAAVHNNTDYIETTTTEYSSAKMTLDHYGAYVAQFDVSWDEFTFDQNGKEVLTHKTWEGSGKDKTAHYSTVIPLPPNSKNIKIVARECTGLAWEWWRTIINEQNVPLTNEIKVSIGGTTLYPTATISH

[8] = target: Suilysin (SLY) (Streptococcus suis, UniProt Q55996); assay: Inhibition of the haemolytic activity of Suilysin; format: cell-based; settings: toxin SLY; haemolysis assay protocol of Section A
Sequence of Suilysin (SLY) (Q55996 28-497 limits assumed): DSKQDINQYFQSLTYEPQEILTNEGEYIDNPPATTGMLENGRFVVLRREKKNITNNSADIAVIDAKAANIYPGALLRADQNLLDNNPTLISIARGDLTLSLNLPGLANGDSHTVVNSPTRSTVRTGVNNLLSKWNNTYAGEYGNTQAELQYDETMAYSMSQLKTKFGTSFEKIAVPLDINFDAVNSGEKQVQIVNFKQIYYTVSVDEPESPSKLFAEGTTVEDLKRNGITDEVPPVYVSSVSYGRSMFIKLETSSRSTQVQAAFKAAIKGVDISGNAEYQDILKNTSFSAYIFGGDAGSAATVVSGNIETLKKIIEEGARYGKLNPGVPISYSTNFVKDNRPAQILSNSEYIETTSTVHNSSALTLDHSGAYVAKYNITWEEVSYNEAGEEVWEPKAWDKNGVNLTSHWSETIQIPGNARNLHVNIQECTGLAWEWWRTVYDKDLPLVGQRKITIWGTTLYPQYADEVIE

[9] = target: T1, pneumolysin; assay: Ex vivo meningitis assay: effect of pneumolysin on ciliary function of cultured ependymal cells; format: cell-based; settings: rat ependymal cells; UL2-001 2.00 μM; FIG. 3
Source text: The ependymal ciliated cells line the cerebral ventricles of the brain and the central canal of the spinal cord and are covered with cilia responsible for the circulation of the cerebrospinal fluid (CSF) around the central nervous system. This layer acts as a selective brain barrier to and from the cerebrospinal fluid and plays a role in controlling the CSF volume. […] This model is based on culturing and differentiating ciliated ependymal cells from neonate rat brains, which recreate the in vivo situation, where cells lining the brain ventricles, are exposed to S. pneumoniae and its toxic products.
Ependymal cell cultures were prepared by the method previously described [Microb. Pathog. (1999) 27 303-309]. Tissue culture trays were coated with bovine fibronectin and incubated at 37° C. in 5% (v/v) CO2 for 2 h before use. […]
After approximately two weeks, the cells were fully ciliated and ready for experiments. […] Beating cilia were recorded before and after exposure over 30 min, with a digital high-speed video camera at a rate of 500 frames/s. The recorded video sequences were played back at reduced frame rates and the ciliary beat frequency (CBF) was determined by the following equation: […]

[10] = system: Streptococcus pneumoniae strain D39; assay: In vivo efficacy assay using a mouse pneumonia model; settings: MF1 mice; 0.8 mg/kg intranasally every 6 h; 36 h to 60 h post-infection; p<0.05; FIG. 9
[11] = inhibition of pneumolysin-induced haemolysis of sheep erythrocytes, class symbols of Table 1
[12] = IC50, inhibition of pneumolysin-induced haemolysis of sheep erythrocytes, class symbols of Table 1

T1 sequence (Q04IN8 whole entry): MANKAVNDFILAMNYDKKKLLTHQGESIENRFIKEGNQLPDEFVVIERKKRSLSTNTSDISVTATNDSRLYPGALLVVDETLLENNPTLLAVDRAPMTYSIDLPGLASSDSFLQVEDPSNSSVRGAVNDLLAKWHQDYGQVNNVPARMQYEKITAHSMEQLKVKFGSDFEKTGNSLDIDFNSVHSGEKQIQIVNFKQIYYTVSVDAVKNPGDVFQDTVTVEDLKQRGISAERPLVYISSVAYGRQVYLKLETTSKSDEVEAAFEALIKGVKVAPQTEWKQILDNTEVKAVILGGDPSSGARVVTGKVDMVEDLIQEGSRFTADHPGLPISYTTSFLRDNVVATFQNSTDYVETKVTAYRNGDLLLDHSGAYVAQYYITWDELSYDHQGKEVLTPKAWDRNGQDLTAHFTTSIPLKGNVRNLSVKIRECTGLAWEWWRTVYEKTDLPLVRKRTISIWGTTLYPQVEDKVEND

Structure (SMILES) | [ ] (μM) t0 min. Prodrug [2] [µM] | [ ] (μM) t15 min. Prodrug [2] [µM] | [ ] (μM) t30 min. Prodrug [2] [µM] | [ ] (μM) t60 min. Prodrug [2] [µM] | [ ] (μM) t120 min. Prodrug [2] [µM] | [ ] (μM) t0 min. Prodrug (Human) ([3]; 0 min) [µM] | [ ] (μM) t15 min. Prodrug (Human) [3] [µM] | [ ] (μM) t30 min. Prodrug (Human) [3] [µM] | [ ] (μM) t60 min. Prodrug (Human) [3] [µM] | [ ] (μM) t120 min. Prodrug (Human) [3] [µM] | IC50 [1, 12] [µM] | also measured
CCOC(=O)c1c(OC(=O)C(C)C)c(OC(=O)C(C)C)c(C(=O)N(C)C)n1-c1ccc(OCCOCCOCCOC)cc1 [UL1-098, 2-(dimethylcarbamoyl)-5-(ethoxycarbonyl)-1-(4-(2-(2-(2-methoxyethoxy)ethoxy)ethoxy)phenyl)-1H-pyrrole-3,4-diyl bis(2-methylpropanoate)] | 10 | 0 | 0 | 0 | 0 | 10 | 5.42 | 3.45 | 1.76 | 0.65 |  | IC50 [1, 11]: > 60 µM
CCOC(=O)c1c(OC(=O)C(C)(C)COCCOCCOP(=O)(O)O)c(OC(=O)C(C)(C)COCCOCCOP(=O)(O)O)c(C(=O)N(C)C)n1-c1ccc(OC)cc1 [UL1-117, 2-(dimethylcarbamoyl)-5-(ethoxycarbonyl)-1-(4-methoxyphenyl)-1H-pyrrole-3,4-diyl bis(2,2-dimethyl-3-(2-(2-(phosphonooxy)ethoxy)ethoxy)propanoate)] | 10 | 5.92 | 4.26 | 1.41 | 0.21 | 10 | 14.9 | 10.1 | 4.28 | 1.12 | 10 to 20 | 
CCOC(=O)c1c(OC(=O)C(C)(C)COCCOCCOC)c(OC(=O)C(C)(C)COCCOCCOC)c(C(=O)N(C)C)n1-c1ccc(OC)cc1 [UL1-111, 2-(dimethylcarbamoyl)-5-(ethoxycarbonyl)-1-(4-methoxyphenyl)-1H-pyrrole-3,4-diyl bis(3-(2-(2-methoxyethoxy)ethoxy)-2,2-dimethylpropanoate)] | 10 | 4.74 | 2.47 | 1.16 | 0.47 | 10 | 2.84 | 0.80 | 0.09 | 0.00 | < 10 | [ ] (μM) t0 min. Active (Human) (UL1-012) ([3]; 10 μM prodrug, active UL1-012 appearing, 0 min): <LOQ
CCOC(=O)c1c(O)c(O)c(C(=O)OCC)n1-c1ccc(OC)cc1 [UL2-001, diethyl 3,4-dihydroxy-1-(4-methoxyphenyl)-1H-pyrrole-2,5-dicarboxylate] |  |  |  |  |  |  |  |  |  |  | < 10 | IC50 ([1]; IC50, inhibition of pneumolysin-induced haemolysis of sheep erythrocytes, specific values): 0.3 µM; IC50 [4]: 20 to 60 µM; IC50 [5]: < 10 µM; IC50 [6]: < 10 µM; IC50 [7]: < 10 µM; IC50 [8]: < 10 µM; ciliary beating frequency (CBF) in the presence of pneumolysin [9]: No significant loss of the CBF; percentage of survival [10]: 60%
COc1ccc(-n2c(C(=O)N(C)C)c(OC(=O)C(C)C)c(OC(=O)C(C)C)c2C(=O)N(C)C)cc1 [UL1-114, 2,5-bis(dimethylcarbamoyl)-1-(4-methoxyphenyl)-1H-pyrrole-3,4-diyl bis(2-methylpropanoate)] | 10 | 0 | 0 | 0 | 0 | 10 | 9.53 | 9.48 | 8.22 | 7.22 | 10 to 20 | 
CCOC(=O)c1c(O)c(OP(=O)(O)O)c(C(=O)N(C)C)n1-c1ccc(OC)cc1 [UL1-070, ethyl 5-(dimethylcarbamoyl)-3-hydroxy-1-(4-methoxyphenyl)-4-(phosphonooxy)-1H-pyrrole-2-carboxylate] | 10 | 6.40 | 4.73 | 2.43 | 0.93 | 10 | 8.02 | 8.28 | 7.70 | 7.48 | 20 to 60 | 
CCOC(=O)c1c(O)c(OCOP(=O)(O)O)c(C(=O)N(C)C)n1-c1ccc(OC)cc1 [UL1-109, ethyl 5-(dimethylcarbamoyl)-3-hydroxy-1-(4-methoxyphenyl)-4-((phosphonooxy)methoxy)-1H-pyrrole-2-carboxylate] | 10 | 6.87 | 4.84 | 2.45 | 0.73 | 10 | 6.22 | 5.37 | 3.39 | 1.72 |  | IC50 [1, 11]: > 60 µM
